Reference: patent US20080312300A1, “Processes for the Preparation of Stable Polymorphic Form I of Ritonavir” (priority 2005, published 2008)

Test: Stability study on storage (polymorphic conversion followed by XRD)
Type: physicochemical
Experimental: A first aspect of the present invention provides stable polymorphic Form I of ritonavir having no tendency to convert to any other polymorphic form. […] The X-Ray powdered Diffraction (XRPD) pattern of stable Form I of ritonavir is provided in FIGS. 1a and 2a of the drawing.
(XRD pattern of the title compound stored at 25° C. after 3 months is depicted in FIG. 3).

CC(C)c1nc(CN(C)C(=O)N[C@H](C(=O)N[C@@H](Cc2ccccc2)C[C@H](O)[C@H](Cc2ccccc2)NC(=O)OCc2cncs2)C(C)C)cs1 (relative stereo) [Example 2, [5S-(5R*,8R*,10R*,11R*)]-10-Hydroxy-2-methyl-5-(1-methylethyl)-1-[2-(1-methylethyl)-4-thiazolyl]-3,6-dioxo-8,11-bis(phenylmethyl)-2,4,7,12-tetraazamidecan-13-oic acid, 5-thiazolylmethyl ester]
conversion in the polymorphic form on storage (stored at 25° C. for 3 months, XRD pattern (FIG. 3)): no conversion in the polymorphic form was observed

CC(C)c1nc(CN(C)C(=O)N[C@H](C(=O)N[C@@H](Cc2ccccc2)C[C@H](O)[C@H](Cc2ccccc2)NC(=O)OCc2cncs2)C(C)C)cs1 (single isomer, unassigned) [Form I of ritonavir, [5S-(5R*,8R*,10R*,11R*)]-10-Hydroxy-2-methyl-5-(1-methylethyl)-1-[2-(1-methylethyl)-4-thiazolyl]-3,6-dioxo-8,11-bis(phenylmethyl)-2,4,7,12-tetraazamidecan-13-oic acid, 5-thiazolylmethyl ester]
stability of polymorphic form upon storage (prepared as per prior art process, tendency to convert to other forms, especially Form II): not stable
